Laboratory results as given in ChEMBL document CHEMBL1201862, “PubChem BioAssay data set” (2004).
Active and inactive are the calls of the source.

Tests used:
[1] = blockers of HIV-1 ZM109 envelope-driven cell-cell fusion – HeLa effector, CEM target cells, luciferase, cherry-pick, dose response (AID 652058); type: functional, cell-based;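 note: luciferase signal from HIV-1 Env mediated cell-cell fusion of effector and target cells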
[2] = viability loss in CEM21 cells – cell-based, CellTiter-Glo luminescence, cherry-picked, cytotoxicity control for viral fusion inhibitor project, dose response (AID 652042); type: functional;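 note: potency for signal decrease meaning cytotoxicity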
[3] = HIV-1 AD8 envelope cell-cell fusion blockers – cherry-pick, dose response (AID 652062); type: functional, cell-based;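 note: luciferase signal from cell-cell fusion driven by HIV-1 clade B AD8 Env; potency is for inhibitors of fusion seen as a drop in luminescence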
[4] = blockers of HIV-1 envelope-mediated cell-cell fusion – cherry-pick, dose response (AID 652057); type: functional, cell-based
[5] = molecular target: Prothrombin (Bos taurus, UniProt P00735); test: thrombin protease inhibitors – biochemical, fluorescence polarization, uHTS hits, dose response (AID 602369); type: functional
[6] = molecular target: 26S proteasome non-ATPase regulatory subunit 14 (Homo sapiens, UniProt O00487); test: inhibition of proteasome subunit RPN11 – biochemical, fluorescence polarization, uHTS hits, confirmation (AID 602368); type: functional
[7] = molecular target: 72 kDa type IV collagenase (Homo sapiens, UniProt P08253); test: Dose Response validation of uHTS RPN11 inhibitor hits using a MMP-2 Fluorescence assay.; type: functional
[8] = molecular target: T1, Carboxy-terminal domain RNA polymerase II polypeptide A small phosphatase 1 (Homo sapiens, UniProt Q9GZU7); test: CTDSP1 inhibitors, concentration-response, biochemical, absorbance readout, ultra-high-throughput screen actives (AID 540297); type: functional
T1 sequence (Q9GZU7 whole entry): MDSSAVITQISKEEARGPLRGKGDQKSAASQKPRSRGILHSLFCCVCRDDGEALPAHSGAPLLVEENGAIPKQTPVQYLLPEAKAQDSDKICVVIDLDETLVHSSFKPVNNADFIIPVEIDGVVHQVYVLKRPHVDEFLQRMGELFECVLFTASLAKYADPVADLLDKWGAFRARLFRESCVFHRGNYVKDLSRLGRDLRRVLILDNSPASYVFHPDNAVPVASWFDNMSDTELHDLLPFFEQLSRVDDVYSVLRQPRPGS

[9] = bead-based luminescence quenchers, dual-tagged ARNT – biochemical, AlphaScreen, cherry-pick, artefact control for ARNT-TACC3 interaction inhibitor project, dose response (AID 651705); type: functional;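 note: AlphaScreen bead proximity signal that flags compounds interfering with the detection technology; potency reflects signal decrease which marks the compound as an assay artifact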
[10] = molecular target: T2, DNA repair and recombination protein RAD54-like (Homo sapiens, UniProt Q92698); test: RAD54 Holliday junction migration blockers – biochemical, fluorescence, cherry-picked samples, dose series, confirmation (AID 651657); type: functional
T2 sequence (Q92698 whole entry): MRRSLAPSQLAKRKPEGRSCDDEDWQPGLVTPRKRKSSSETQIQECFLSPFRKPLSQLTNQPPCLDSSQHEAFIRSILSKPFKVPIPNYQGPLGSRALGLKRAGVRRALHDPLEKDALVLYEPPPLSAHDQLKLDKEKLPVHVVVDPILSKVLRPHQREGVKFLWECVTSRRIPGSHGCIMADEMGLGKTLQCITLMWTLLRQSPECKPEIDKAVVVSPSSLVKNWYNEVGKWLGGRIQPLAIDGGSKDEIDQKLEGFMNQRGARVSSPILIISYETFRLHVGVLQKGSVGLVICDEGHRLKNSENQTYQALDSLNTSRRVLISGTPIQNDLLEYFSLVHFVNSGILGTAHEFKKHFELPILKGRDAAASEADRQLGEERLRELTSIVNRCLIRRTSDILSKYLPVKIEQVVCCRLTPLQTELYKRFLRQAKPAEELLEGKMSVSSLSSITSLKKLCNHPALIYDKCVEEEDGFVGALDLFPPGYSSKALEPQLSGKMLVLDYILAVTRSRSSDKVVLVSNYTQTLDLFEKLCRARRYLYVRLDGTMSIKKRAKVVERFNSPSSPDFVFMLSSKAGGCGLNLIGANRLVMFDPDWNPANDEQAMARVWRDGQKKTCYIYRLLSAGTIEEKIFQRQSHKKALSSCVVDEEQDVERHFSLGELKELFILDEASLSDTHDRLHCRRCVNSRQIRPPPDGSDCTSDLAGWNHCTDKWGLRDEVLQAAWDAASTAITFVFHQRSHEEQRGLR

[11] = molecular target: DNA (cytosine-5)-methyltransferase 1 (Homo sapiens, UniProt P26358); test: inhibition of DNA methylation by DNMT1 – biochemical, fluorescent molecular beacon, confirmation (AID 602386); type: functional
[12] = molecular target: T3, Coagulation factor XII (Homo sapiens, UniProt P00748); type: functional;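 note: activated factor XIIa alpha cleaving a fluorogenic AMC peptide substrate; inhibitor potency from loss of enzyme activity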
T3 sequence (P00748 whole entry): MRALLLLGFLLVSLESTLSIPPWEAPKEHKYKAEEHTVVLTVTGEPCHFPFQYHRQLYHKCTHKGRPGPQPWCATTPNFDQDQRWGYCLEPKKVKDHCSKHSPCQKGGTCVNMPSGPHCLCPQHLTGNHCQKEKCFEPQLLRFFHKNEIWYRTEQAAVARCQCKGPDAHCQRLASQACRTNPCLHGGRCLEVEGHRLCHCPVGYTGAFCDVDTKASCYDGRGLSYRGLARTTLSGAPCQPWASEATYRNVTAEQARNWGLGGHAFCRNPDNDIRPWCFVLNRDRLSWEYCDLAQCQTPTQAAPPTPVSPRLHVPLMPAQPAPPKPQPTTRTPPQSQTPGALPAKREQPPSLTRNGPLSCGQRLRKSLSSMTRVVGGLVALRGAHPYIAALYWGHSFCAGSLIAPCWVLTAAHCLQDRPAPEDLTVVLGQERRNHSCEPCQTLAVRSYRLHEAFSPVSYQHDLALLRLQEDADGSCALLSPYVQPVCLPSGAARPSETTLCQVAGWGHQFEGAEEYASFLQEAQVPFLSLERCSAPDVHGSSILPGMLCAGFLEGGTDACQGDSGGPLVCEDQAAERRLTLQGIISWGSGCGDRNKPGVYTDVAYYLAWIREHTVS

[13] = NIH3T3 cell viability loss – ATP luminescence, mouse fibroblasts, counter-screen, dose response (AID 2010); type: functional, cell-based;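 note: cells exposed to compound for about 90 hours before reading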
[14] = molecular target: T4, Streptokinase A (Streptococcus pyogenes serotype M1, UniProt P10520); test: viability-normalized secreted streptokinase activity reduction – plasminogen activation absorbance, OD405, dose response (AID 1914); type: functional, Streptococcus pyogenes M1 GAS;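 note: secreted streptokinase activity via plasminogen activation per viability signal from cell pellet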
T4 sequence (P10520 whole entry): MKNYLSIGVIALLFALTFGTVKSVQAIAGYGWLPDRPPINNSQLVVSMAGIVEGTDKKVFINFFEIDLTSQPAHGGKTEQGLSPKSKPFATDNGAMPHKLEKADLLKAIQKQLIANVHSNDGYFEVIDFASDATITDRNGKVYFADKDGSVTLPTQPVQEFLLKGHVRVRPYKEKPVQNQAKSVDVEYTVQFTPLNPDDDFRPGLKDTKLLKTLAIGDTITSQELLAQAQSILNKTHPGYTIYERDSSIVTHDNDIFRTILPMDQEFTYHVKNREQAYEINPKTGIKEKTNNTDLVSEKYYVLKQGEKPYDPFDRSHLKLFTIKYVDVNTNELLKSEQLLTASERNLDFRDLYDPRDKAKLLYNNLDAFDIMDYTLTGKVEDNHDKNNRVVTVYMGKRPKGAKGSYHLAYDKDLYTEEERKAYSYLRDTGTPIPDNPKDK

[15] = system: Streptococcus sp. 'group A'; test: Streptococcus pyogenes SK(-)GAS viability under kanamycin – luminescence, BacTiterGlo, confirmation, counter-screen for streptokinase expression inhibitor project, dose response (AID 1900); type: functional, organism-based
[16] = Trypanosoma cruzi growth suppression in host cells – NIH3T3 host cells, beta-gal luminescence, confirmation (AID 2044); type: functional, cell-based;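 note: intracellular parasites grown in NIH/3T3 mouse fibroblasts as host cells; luminescent beta-galactosidase reporter signal from transgenic T. cruzi replicating inside host cells; inhibitors lower the luminescence signal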
[17] = system: Streptococcus; test: GAS UMAA2166 growth inhibition – luminescence, BacTiterGlo, counter-screen for streptokinase expression inhibitor project, dose response (AID 1915); type: functional, organism-based;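 note: potency for reduction of bacterial viability or growth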
[18] = molecular target: T5, Rac GTPase-activating protein 1 (Homo sapiens, UniProt Q9H0H5); test: blockers of MgcRacGAP-driven Rac1 GTP hydrolysis – biochemical, ADP Hunter fluorescence, primary and confirmatory, confirmation (AID 624330); type: functional
T5 sequence (Q9H0H5 whole entry): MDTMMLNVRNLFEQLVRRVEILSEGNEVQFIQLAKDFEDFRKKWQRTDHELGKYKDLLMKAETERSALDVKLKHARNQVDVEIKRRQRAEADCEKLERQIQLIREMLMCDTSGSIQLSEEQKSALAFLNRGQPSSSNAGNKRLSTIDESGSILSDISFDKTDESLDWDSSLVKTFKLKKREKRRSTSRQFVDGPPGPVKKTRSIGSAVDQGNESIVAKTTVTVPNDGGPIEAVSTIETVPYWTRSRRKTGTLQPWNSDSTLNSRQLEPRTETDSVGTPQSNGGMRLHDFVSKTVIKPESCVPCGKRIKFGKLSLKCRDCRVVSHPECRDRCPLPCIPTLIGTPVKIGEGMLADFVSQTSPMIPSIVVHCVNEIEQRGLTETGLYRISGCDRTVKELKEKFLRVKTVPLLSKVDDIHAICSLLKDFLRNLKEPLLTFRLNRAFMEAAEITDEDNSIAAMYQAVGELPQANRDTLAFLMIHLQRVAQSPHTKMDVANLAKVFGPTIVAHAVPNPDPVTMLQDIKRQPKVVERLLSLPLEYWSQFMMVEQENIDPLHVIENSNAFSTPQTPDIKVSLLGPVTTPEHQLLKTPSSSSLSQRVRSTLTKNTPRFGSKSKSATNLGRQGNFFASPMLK

[19] = molecular target: T6, DNA repair protein RAD52 homolog (Homo sapiens, UniProt P43351); type: functional, biochemical
T6 sequence (P43351 whole entry): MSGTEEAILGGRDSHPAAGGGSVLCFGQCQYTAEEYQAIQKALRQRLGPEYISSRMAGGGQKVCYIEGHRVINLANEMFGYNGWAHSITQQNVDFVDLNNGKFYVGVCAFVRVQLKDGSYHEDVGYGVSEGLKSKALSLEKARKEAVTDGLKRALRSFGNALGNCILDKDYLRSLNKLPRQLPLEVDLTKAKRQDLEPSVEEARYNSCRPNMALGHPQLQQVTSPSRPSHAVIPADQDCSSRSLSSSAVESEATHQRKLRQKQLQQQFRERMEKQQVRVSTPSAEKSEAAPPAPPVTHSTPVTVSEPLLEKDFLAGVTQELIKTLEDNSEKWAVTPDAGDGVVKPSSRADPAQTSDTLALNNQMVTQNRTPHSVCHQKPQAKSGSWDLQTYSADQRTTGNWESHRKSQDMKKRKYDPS

[20] = molecular target: T7, Ubiquitin-conjugating enzyme E2 N (Homo sapiens, UniProt P61088); type: functional;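 note: Dose-response confirmation in a TR-FRET assay detecting UBC13-driven polyubiquitin chain formation, inhibition measured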
T7 sequence (P61088 whole entry): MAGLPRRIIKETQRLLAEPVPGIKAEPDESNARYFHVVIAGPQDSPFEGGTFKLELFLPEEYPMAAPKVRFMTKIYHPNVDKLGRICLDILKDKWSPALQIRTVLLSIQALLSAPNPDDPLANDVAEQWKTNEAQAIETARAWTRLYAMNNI

[21] = viability loss in HeLa cells – cytotoxicity control for MgcRacGAP inhibitor project, dose response (AID 624300); type: functional
[22] = molecular target: Cytochrome P450 2C9 (Homo sapiens, UniProt P11712)
[23] = molecular target: T8, Cytochrome P450 1A2 (Homo sapiens, UniProt P05177);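 note: PubChem cytochrome P450 panel assay, CYP1A2 panel member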
T8 sequence (P05177 whole entry): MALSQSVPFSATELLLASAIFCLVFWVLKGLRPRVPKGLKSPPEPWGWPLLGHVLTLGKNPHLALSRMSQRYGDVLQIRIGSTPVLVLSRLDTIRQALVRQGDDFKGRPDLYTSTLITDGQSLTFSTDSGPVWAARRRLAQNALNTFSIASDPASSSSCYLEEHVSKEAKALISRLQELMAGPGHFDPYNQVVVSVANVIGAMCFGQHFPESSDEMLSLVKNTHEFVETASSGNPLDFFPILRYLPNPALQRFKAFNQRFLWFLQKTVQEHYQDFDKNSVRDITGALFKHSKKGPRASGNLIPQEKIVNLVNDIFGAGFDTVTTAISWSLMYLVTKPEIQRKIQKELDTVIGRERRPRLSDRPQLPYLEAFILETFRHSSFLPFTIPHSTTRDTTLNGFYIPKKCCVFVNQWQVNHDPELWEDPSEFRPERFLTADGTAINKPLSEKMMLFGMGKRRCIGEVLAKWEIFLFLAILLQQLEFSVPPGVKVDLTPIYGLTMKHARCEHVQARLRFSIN

Sequence of 72 kDa type IV collagenase (P08253 whole entry, the tested form may be a part): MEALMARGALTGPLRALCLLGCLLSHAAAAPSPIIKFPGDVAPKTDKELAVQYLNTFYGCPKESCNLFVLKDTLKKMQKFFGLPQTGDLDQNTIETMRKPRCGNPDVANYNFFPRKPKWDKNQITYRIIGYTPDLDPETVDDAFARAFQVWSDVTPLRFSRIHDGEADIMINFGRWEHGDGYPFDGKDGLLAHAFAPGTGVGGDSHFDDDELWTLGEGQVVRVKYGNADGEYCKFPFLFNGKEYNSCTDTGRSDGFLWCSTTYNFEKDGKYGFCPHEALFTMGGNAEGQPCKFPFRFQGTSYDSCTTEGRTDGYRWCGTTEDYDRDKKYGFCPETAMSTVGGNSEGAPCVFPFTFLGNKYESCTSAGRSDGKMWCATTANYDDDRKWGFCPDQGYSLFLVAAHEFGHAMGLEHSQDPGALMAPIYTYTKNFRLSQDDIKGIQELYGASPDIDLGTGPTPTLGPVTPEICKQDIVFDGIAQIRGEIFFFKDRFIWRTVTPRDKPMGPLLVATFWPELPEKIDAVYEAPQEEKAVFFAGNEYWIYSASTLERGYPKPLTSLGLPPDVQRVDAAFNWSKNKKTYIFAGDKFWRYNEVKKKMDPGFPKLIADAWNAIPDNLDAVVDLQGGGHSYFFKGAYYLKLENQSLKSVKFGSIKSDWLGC
Sequence of DNA (cytosine-5)-methyltransferase 1 (P26358 whole entry): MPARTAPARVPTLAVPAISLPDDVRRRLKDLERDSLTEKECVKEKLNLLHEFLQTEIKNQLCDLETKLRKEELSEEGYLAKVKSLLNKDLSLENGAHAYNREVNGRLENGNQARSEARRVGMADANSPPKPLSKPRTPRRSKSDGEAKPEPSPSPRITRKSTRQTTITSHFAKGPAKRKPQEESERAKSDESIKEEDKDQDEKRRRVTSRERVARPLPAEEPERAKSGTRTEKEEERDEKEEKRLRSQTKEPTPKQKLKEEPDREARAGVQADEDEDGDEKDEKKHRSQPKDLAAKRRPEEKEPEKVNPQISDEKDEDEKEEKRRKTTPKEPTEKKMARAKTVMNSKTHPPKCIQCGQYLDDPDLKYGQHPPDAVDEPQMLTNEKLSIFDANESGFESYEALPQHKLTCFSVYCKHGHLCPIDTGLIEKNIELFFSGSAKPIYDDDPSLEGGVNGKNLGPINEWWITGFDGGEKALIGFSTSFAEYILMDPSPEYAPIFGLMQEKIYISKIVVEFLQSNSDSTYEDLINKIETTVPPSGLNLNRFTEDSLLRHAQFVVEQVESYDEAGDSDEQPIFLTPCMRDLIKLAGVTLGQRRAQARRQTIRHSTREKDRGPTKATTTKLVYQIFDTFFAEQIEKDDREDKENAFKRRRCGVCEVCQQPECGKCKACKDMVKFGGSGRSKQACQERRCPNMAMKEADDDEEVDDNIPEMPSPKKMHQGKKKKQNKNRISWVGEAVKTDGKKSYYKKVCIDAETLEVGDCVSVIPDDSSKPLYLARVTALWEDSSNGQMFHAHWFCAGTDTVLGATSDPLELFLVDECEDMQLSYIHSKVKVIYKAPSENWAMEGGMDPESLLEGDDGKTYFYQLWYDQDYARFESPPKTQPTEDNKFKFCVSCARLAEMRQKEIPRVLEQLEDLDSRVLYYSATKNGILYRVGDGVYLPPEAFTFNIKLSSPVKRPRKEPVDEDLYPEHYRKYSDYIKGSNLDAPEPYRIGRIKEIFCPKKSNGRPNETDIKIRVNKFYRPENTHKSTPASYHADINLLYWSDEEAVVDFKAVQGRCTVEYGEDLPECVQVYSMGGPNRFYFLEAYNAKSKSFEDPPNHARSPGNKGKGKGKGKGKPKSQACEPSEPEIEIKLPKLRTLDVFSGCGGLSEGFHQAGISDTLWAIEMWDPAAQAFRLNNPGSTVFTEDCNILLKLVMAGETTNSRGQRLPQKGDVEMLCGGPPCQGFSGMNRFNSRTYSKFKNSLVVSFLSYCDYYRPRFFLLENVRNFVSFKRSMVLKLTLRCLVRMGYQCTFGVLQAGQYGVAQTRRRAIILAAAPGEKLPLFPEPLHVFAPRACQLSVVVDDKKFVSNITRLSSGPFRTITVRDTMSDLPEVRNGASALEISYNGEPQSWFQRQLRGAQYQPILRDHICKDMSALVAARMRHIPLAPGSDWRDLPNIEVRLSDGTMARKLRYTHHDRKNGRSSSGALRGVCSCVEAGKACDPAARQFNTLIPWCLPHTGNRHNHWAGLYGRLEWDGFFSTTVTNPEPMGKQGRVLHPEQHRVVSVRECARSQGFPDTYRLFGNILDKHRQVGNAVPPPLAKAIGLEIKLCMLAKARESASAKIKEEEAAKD
Sequence of Cytochrome P450 2C9 (P11712 whole entry): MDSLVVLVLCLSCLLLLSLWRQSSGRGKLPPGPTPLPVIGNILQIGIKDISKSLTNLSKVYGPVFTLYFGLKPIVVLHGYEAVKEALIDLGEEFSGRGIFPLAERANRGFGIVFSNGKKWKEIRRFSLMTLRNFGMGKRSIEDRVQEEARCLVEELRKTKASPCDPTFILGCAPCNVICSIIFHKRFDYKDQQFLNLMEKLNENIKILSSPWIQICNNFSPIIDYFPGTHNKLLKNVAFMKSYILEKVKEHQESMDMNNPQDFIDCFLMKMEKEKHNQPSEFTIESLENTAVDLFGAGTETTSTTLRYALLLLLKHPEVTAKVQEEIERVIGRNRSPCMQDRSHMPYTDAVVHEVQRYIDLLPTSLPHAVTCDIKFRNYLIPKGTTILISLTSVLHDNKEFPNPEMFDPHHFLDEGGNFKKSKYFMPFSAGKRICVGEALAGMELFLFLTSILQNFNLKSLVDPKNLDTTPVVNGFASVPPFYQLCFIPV
Sequence of 26S proteasome non-ATPase regulatory subunit 14 (O00487 whole entry): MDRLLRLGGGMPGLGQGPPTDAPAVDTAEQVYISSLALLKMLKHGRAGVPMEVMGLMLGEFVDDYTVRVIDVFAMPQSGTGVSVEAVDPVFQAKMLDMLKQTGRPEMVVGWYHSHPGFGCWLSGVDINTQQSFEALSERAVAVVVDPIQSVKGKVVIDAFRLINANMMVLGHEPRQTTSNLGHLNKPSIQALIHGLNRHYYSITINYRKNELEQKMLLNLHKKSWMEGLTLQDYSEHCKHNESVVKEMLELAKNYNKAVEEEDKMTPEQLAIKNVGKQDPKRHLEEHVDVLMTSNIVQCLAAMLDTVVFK

In the case of `COc1ccc(NC(=O)Nc2ccc3c(c2)CC(=O)N([C@@H](C)CO)C[C@@H](C)[C@H](CN(C)Cc2ccc(C(F)(F)F)cc2)O3)cc1`, the AC50 [1] was 2.67 µM (active), the AC50 [2] was 23.2 µM (active) and the AC50 [3] was 27 µM (active). For the same compound, the AC50 [4] was 6.8 µM (active).
With `Cc1ccc(CSCC(=O)N/N=C/c2ccc(OCC(=O)Nc3ccc(C)cc3)cc2)cc1` the IC50 [5] was 96.9 µM (active), the IC50 [6] was 11.9 µM (active) and the IC50 [7] was > 100 µM (inactive). The IC50 [8] was 3.43 µM (active).
With `CCOc1cc2nc(-c3ccc(OC)c(OC)c3)nc(NCCCN3CCOCC3)c2cc1OC` the AC50 [9] was 130 µM (active) and the AC50 [10] was 5.2 µM (active).
For `C=C(C)C(=O)Nc1cccc(C2=NOC3(C2)C[C@H](C(N)=O)N(C(=O)CC)C3)c1` (stereo partly specified), the IC50 [11] was 4.32 µM (active) and the IC50 [12] was > 50 µM (inactive).
For `CCOc1ccc(NC(=O)c2c(NC(=O)CNCCN3CCOCC3)sc3c2CCC3)cc1`, the EC50 [13] was > 30 µM (not active), the EC50 [14] was > 150 µM (not active) and the AC50 [9] was 75.1 µM (active). The EC50 [15] was 1.95 µM (active), the EC50 [16] was 1.74 µM (active) and the EC50 [17] was 59.5 µM (active).
In the case of `CN1CCN(CCCN2c3ccccc3Sc3ccc(Cl)cc32)CC1` [PROCHLORPERAZINE EDISYLATE], the IC50 [18] was 80 µM (active), the AC50 [19] was 17.6 µM (active) and the IC50 [20] was > 20 µM (inactive). The CC50 [21] was 65 µM (active).
In the case of `CN(C)CCNc1cc(-c2ccncc2)nc2ccccc12`, the AC50 [19] was 4.09 µM (active) and the AC50 [10] was 17.2 µM (active).
For `O=C(CSc1cccc2cccnc12)OCC(=O)c1ccccc1`, the AC50 [22] was “inconclusive”, the AC50 [9] was 92.5 µM (active) and the AC50 [23] was 20 µM (inconclusive).
In the case of `CCCCCCCCN1C(=O)[C@H](CC(=O)NCc2cccs2)C[C@@]2(C(=O)OCC)CCCC=C12`, the AC50 [1] was 17 µM (active), the AC50 [2] was 25.1 µM (active) and the AC50 [3] was 22.7 µM (active). For the same compound, the AC50 [4] was 16.8 µM (active).
